According to patent publication US9409952B2, “Peptide-compound cyclization method” (Chugai Seiyaku Kabushiki Kaisha, priority 2011, dated 2016):
Like-named read-outs stand apart in the source and are kept apart here. Starred links: 1 amine or outer side, 2 acyl side, 3 side chain; linkers in the order of their positions; H or OH if unused. Non-standard residues stand in square brackets, D forms with d. Residues, ends and D or L forms follow the SMILES beside them. *: point of attachment. Phe(4-CF3) = N[C@@H](Cc1ccc(C(F)(F)F)cc1)C(=O)O; NMePhe(3-Cl) = CN[C@@H](Cc1cccc(Cl)c1)C(=O)O; NMeF = CN[C@@H](Cc1ccccc1)C(=O)O; NMeGABA = CN(CCCC(=O)[*:2])[*:1]; NMeI = CC[C@H](C)[C@H](NC)C(=O)O; NMeL = CN[C@@H](CC(C)C)C(=O)O; NMeA = CN[C@@H](C)C(=O)O; dNMeA = CN[C@H](C)C(=O)O; β3hA = C[C@H](N)CC(=O)O; Sar = CNCC(=O)O; tBu = CC(C)(C)*

Experiments:
[1] = PAMPA (parallel artificial membrane permeability assay); format: in vitro ADME; conditions: PAMPA
How it was run: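 Artificial membrane was 10% (w/v) egg lecithin plus 0.5% (w/v) cholesterol in dodecane on a PVDF filter. A 10 mM DMSO stock was added at 0.5% (v/v) to donor buffer (50 mM MOPSO, pH 6.5, 5.0% glycocholic acid). After 18 h at 37 °C, LC/MS or LC/UV gave donor and acceptor levels for Pe.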

[2] = Metabolic stability in human hepatic microsome; format: in vitro ADME; conditions: microsomes
[3] = membrane permeation rate (Pe), 50 mM MOPSO buffer pH 6.5 with 5.0% glycocholic acid, 37° C., 18 hours, read-out: iPAMPA Pe
[4] = pH 7.4, human hepatic microsome, NADPH(+), read-out: CL NADPH(+)

Structure (SMILES) | Papp at 18 hours, 50 µM ([1]; pH 6.5) | microsomal CLint at 1 uM ([2]; human, pH 7.4, CL NADPH(+)) | Papp at 18 hours, 50 µM [1, 3] | microsomal CLint at 1 uM [2, 4]
CC[C@H](C)[C@@H]1NC(=O)[C@H](CC(C)C)N(C)C(=O)[C@H](Cc2ccccc2)N(C)C(=O)[C@@H](C(C)C)NC(=O)C[C@H](C)NC(=O)[C@H](CC(C)C)N(C)C(=O)[C@H](C)N(C)C(=O)[C@H]([C@@H](C)O)NC(=O)[C@H](Cc2cccc(Cl)c2)N(C)C(=O)[C@H](CC(C)C)N(C)C1=O [DP-782] (cyclo(I[NMeL][NMePhe(3-Cl)]T[NMeA][NMeL][β3hA][dV][NMeF][NMeL])) | 10 ×10⁻⁶ cm/s | 127 µL/min/mg | – | –
CC[C@H](C)[C@@H]1NC(=O)[C@H](C)N(C)C(=O)[C@@H](C)N(C)C(=O)C[C@H](C)NC(=O)[C@H](CC(C)C)N(C)C(=O)[C@H](C)N(C)C(=O)[C@H](Cc2ccccc2)N(C)C(=O)[C@H]([C@@H](C)O)NC(=O)[C@H](Cc2ccccc2)N(C)C(=O)[C@H](CC(C)C)N(C)C1=O [DP-783] (cyclo(I[NMeL][NMeF]T[NMeF][NMeA][NMeL][β3hA][dNMeA][NMeA])) | 31 ×10⁻⁶ cm/s | 269 µL/min/mg | – | –
CC(C)C[C@@H]1NC(=O)[C@H](Cc2ccccc2)NC(=O)[C@H](CC(C)C)N(C)C(=O)[C@H](Cc2ccccc2)NC(=O)[C@@H](C)N(C)C(=O)C[C@H](C)NC(=O)[C@H](Cc2ccccc2)N(C)C(=O)CNC(=O)[C@H]([C@@H](C)O)NC(=O)[C@H](CC(C)C)NC1=O [DP-784] (cyclo(FLLTG[NMeF][β3hA][dNMeA]F[NMeL])) | 46 ×10⁻⁶ cm/s | 97 µL/min/mg | – | –
CC(C)C[C@H]1C(=O)N(C)[C@@H](Cc2ccccc2)C(=O)NCC(=O)N[C@@H](C)CC(=O)N(C)CCCC(=O)N[C@@H]([C@@H](C)O)C(=O)N(C)[C@@H](C)C(=O)N(C)[C@@H](Cc2ccccc2)C(=O)N[C@@H](COC(C)(C)C)C(=O)N1C [DP-785] (cyclo(G[β3hA][NMeGABA]T[NMeA][NMeF]S(tBu)[NMeL][NMeF])) | 29 ×10⁻⁶ cm/s | 193 µL/min/mg | – | –
CC(C)C[C@H]1C(=O)N[C@@H](COC(C)(C)C)C(=O)N[C@@H](C)CC(=O)N[C@H](C)C(=O)N(C)[C@@H](C)C(=O)N(C)[C@@H](Cc2ccccc2)C(=O)N(C)[C@@H](C)C(=O)N[C@@H]([C@@H](C)O)C(=O)N(C)[C@@H](C)C(=O)N1C [DP-786] (cyclo([NMeA][NMeF][NMeA]T[NMeA][NMeL]S(tBu)[β3hA][dA])) | – | – | 5.9 ×10⁻⁶ cm/s | 14 µL/min/mg
CC(C)C[C@H]1C(=O)N[C@@H](COC(C)(C)C)C(=O)N[C@@H](C)CC(=O)N[C@H](C)C(=O)N(C)[C@@H](C)C(=O)N(C)[C@@H](Cc2ccccc2)C(=O)N(C)[C@@H](CC(C)C)C(=O)N[C@@H]([C@@H](C)O)C(=O)N(C)[C@@H](C)C(=O)N1C [DP-787] (cyclo([NMeA][NMeF][NMeL]T[NMeA][NMeL]S(tBu)[β3hA][dA])) | – | – | 29 ×10⁻⁶ cm/s | 33 µL/min/mg
CC(C)C[C@H]1C(=O)N(C)[C@@H](Cc2ccccc2)C(=O)N(C)[C@@H](CC(C)C)C(=O)N[C@@H](C)CC(=O)N[C@H](C(C)C)C(=O)N[C@@H](C)C(=O)N[C@@H]([C@@H](C)O)C(=O)N(C)[C@@H](C)C(=O)N[C@@H](Cc2ccccc2)C(=O)N1C [DP-788] (cyclo(AT[NMeA]F[NMeL][NMeF][NMeL][β3hA][dV])) | – | – | 49 ×10⁻⁶ cm/s | 158 µL/min/mg
CC[C@H](C)[C@H]1C(=O)N[C@@H](C)CC(=O)N(C)[C@H](C)C(=O)N(C)[C@@H](Cc2ccccc2)C(=O)N(C)[C@@H](CC(C)C)C(=O)N[C@@H]([C@@H](C)O)C(=O)N(C)CC(=O)N[C@@H](COC(C)(C)C)C(=O)N(C)[C@@H](CC(C)C)C(=O)N1C [DP-789] (cyclo([NMeF][NMeL]T[Sar]S(tBu)[NMeL][NMeI][β3hA][dNMeA])) | – | – | 35 ×10⁻⁶ cm/s | 113 µL/min/mg
CC(C)C[C@@H]1NC(=O)[C@@H](C(C)C)NC(=O)C[C@H](C)NC(=O)[C@H](CC(C)C)N(C)C(=O)[C@H](Cc2ccccc2)N(C)C(=O)[C@H](CC(C)C)N(C)C(=O)[C@H](Cc2ccc(C(F)(F)F)cc2)NC(=O)[C@H](C)N(C)C(=O)[C@H]([C@@H](C)O)NC1=O [DP-790] (cyclo(LT[NMeA][Phe(4-CF3)][NMeL][NMeF][NMeL][β3hA][dV])) | – | – | 56 ×10⁻⁶ cm/s | 40 µL/min/mg
